This note sets out measurements from PubChem BioAssay (NCI).

Test systems include BT-549 breast; MCF7 breast; MDA-MB-435; PC-3 prostate.
Common to all, as to assay: growth of human tumour cells (NCI), 48 h

Molecules are shown by their SMILES.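 Step 1: Grow cells in 96-well plates. Step 2: Expose to compound for 48 hours at 5 concentrations. Step 3: Interpolate endpoints linearly; if unreached, use highest concentration. The concentration for 50% growth inhibition is given as GI50. The concentration for full growth arrest is given as TGI.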

Take `COc1cc2ncnc(Nc3ccc(C)c(O)c3)c2cc1OC`: the GI50 is 12.4 µM with BT-549 breast, greater than 25 µM in the test on MCF7 breast, greater than 25 µM with MDA-MB-435 and greater than 19.8 µM in the test on PC-3 prostate. For the same compound, the TGI with BT-549 breast, with MCF7 breast, with MDA-MB-435 and in the test with PC-3 prostate was greater than 25 µM throughout.

Consider `Cc1cccc(N2CCN(C(=S)c3ccc4c(c3)OCO4)CC2)c1`, for which, in the test with MCF7 breast, the GI50 was 0.571 µM and the TGI is greater than 100 µM. Further, in the test with PC-3 prostate, the GI50 is 4.14 µM and the TGI is greater than 100 µM.

Take `CCCCC(O)(c1ccc(Cl)cc1)C(CN1CCOCC1)c1ccc(Cl)cc1` (centres undefined): the GI50 in the test on BT-549 breast is 15.7 µM; with MCF7 breast, 10.6 µM; in the test on MDA-MB-435, 15.3 µM; in the test on PC-3 prostate it was 7.68 µM. In addition, the TGI in the test with BT-549 breast came out at 31 µM; with MCF7 breast, 24.5 µM; with MDA-MB-435, 39 µM; in the test on PC-3 prostate, 23.9 µM.

Turning to `CCOC(=O)[C@@H](N)CCC(=O)N[C@@H](CSCc1ccccc1)C(=O)N[C@@H](C(=O)OCC)c1ccccc1`, the GI50 in the test with BT-549 breast is 17.5 µM; with MCF7 breast, 16.5 µM; with MDA-MB-435, 16.5 µM; in the test on PC-3 prostate, 16.5 µM. Moreover, the TGI amounted to 33 µM in the test on BT-549 breast, 33.9 µM in the test with MCF7 breast, 32.4 µM with MDA-MB-435 and 37.3 µM with PC-3 prostate.

Turning to `COc1cc2nc3cc([N+](=O)[O-])ccc3c(NCCCNCCO)c2cc1OC`, the GI50 in the test on BT-549 breast is 0.297 µM; with MCF7 breast, 0.12 µM; with MDA-MB-435 it was 0.179 µM; in the test with PC-3 prostate it was 0.213 µM. The TGI with BT-549 breast stood at 0.962 µM; with MCF7 breast it was 0.626 µM; with MDA-MB-435, 0.336 µM; with PC-3 prostate it was 0.483 µM.

In the case of `C=C1C(=O)O[C@H]2[C@H]1CC/C(COC(=O)C(=O)c1cn(Cc3ccccc3)c3ccccc13)=C\CC[C@@]1(C)O[C@@H]21`, the GI50 in the test with BT-549 breast was 1.8 µM; in the test on MCF7 breast it was 1.19 µM; with MDA-MB-435 it was 2.41 µM; in the test with PC-3 prostate it was 2.14 µM. Further, the TGI is 4.1 µM with BT-549 breast, 3.06 µM in the test on MCF7 breast, 7.77 µM in the test on MDA-MB-435 and 4.35 µM in the test with PC-3 prostate.

Take `CN1CCN(CCCOc2ccc3nc(Nc4ccc(Cl)c(C(F)(F)F)c4)ccc3c2)CC1`: the GI50 with BT-549 breast is 14.2 µM; in the test with MCF7 breast, 4.94 µM; in the test with MDA-MB-435, 11.7 µM; in the test with PC-3 prostate, 13.3 µM. Moreover, the TGI was 27.7 µM in the test on BT-549 breast, 22 µM in the test on MCF7 breast, 24.2 µM in the test on MDA-MB-435 and 27.1 µM with PC-3 prostate.

As to `COC(=O)[C@@H](C)CNS(=O)(=O)N(c1cc(C(F)(F)F)cc(C(F)(F)F)c1)C1CCN(Cc2ccc(F)cc2)CC1`, the GI50 with BT-549 breast was 8.34 µM; in the test with MCF7 breast it was 6.91 µM; with MDA-MB-435 it was 10.2 µM; in the test with PC-3 prostate, 7.61 µM. The TGI with BT-549 breast was 22.9 µM; with MCF7 breast, 21.9 µM; in the test with MDA-MB-435 it was 24.8 µM; with PC-3 prostate it was 20.8 µM.

With `CN1C/C=C\CCOc2cccc(c2)-c2ccnc(n2)Nc2cccc(c2)C1`, the GI50 in the test on BT-549 breast is 0.0789 µM; in the test with MCF7 breast it was 0.0354 µM; in the test on MDA-MB-435 it was 0.0624 µM; in the test with PC-3 prostate it was 0.0713 µM. Besides, the TGI in the test with BT-549 breast is 0.393 µM; in the test with MCF7 breast, 1.23 µM; in the test with MDA-MB-435, 0.195 µM; in the test on PC-3 prostate it was 0.435 µM.

Take `c1cc(CNC23CC4CC(CC(C4)C2)C3)cc(C[N+](Cc2cccc(CNC34CC5CC(CC(C5)C3)C4)c2)(Cc2cccc(CNC34CC5CC(CC(C5)C3)C4)c2)Cc2cccc(CNC34CC5CC(CC(C5)C3)C4)c2)c1` (centres undefined): the GI50 with BT-549 breast was 4.27 µM; with MCF7 breast, 4.46 µM; in the test on MDA-MB-435, 3.45 µM; with PC-3 prostate, 5.86 µM. Besides, the TGI turned out to be 11.6 µM in the test on BT-549 breast, 25.9 µM with MCF7 breast, 8.81 µM with MDA-MB-435 and 21.6 µM with PC-3 prostate.

As to `Cc1cc(C(=O)Nc2ncc(Cc3cccc(C(F)(F)F)c3)s2)c2ccccc2n1`, the GI50 in the test with BT-549 breast is 3.61 µM; in the test on MCF7 breast it was 0.579 µM; in the test on PC-3 prostate, 2.31 µM. The TGI in the test with BT-549 breast, with MCF7 breast and in the test with PC-3 prostate was greater than 100 µM in each case.

Consider `COC(=O)C1=CNC=C(C(=O)OC)C1C1=CC(=O)C(C)=CC1=O`, for which the GI50 in the test on BT-549 breast was 18.2 µM; in the test with MCF7 breast, 16.7 µM; in the test with MDA-MB-435, 15.9 µM; in the test with PC-3 prostate it was 16.3 µM. The TGI with BT-549 breast was found to be 34.3 µM; in the test with MCF7 breast, 47.5 µM; in the test on MDA-MB-435 it was 29.5 µM; in the test with PC-3 prostate, 30.5 µM.

For the compound `COc1nc2ccccc2cc1-c1nc2c(cnn2-c2ccc(Br)cc2)c(=O)[nH]1`, the GI50 was 0.156 µM in the test with BT-549 breast, 0.0201 µM with MCF7 breast, 0.00957 µM with MDA-MB-435 and 0.0231 µM in the test on PC-3 prostate. Further, the TGI in the test on BT-549 breast is greater than 25.1 µM; in the test on MCF7 breast, greater than 50 µM; with MDA-MB-435, 0.024 µM; in the test with PC-3 prostate, greater than 50 µM.

In the case of `COc1ccccc1CNCCCN1C(=O)c2ccc3c4c(ccc(c24)C1=O)C(=O)N(CCCOCCCCOCCCN)C3=O`, in the test on MDA-MB-435, the GI50 is 0.2 µM and the TGI is 0.429 µM. For the same compound, in the test on PC-3 prostate, the GI50 is 1.45 µM and the TGI worked out at 5.17 µM.

For `C[C@@]12CC=C3c4nc(Nc5cccc(O)c5)sc4CC[C@]3(C)[C@H]1CC[C@]1(C)C(=O)CC[C@@H]21`, the values for the GI50 in the test on BT-549 breast, in the test on MCF7 breast and in the test on PC-3 prostate were 1.61 µM, 1.85 µM and 1.41 µM, respectively. Besides, the TGI amounted to 6.47 µM in the test on BT-549 breast, 4.43 µM in the test on MCF7 breast and 7.02 µM in the test on PC-3 prostate.

In the case of `COC(=O)[C@H](C)NC(=O)NC(=O)NC(=O)CI`, the GI50 in the test with BT-549 breast was 15 µM; with MCF7 breast, 10.2 µM; in the test with MDA-MB-435, 10.3 µM; in the test with PC-3 prostate, 17.1 µM. For the same compound, the TGI in the test with BT-549 breast came to 28.6 µM; with MCF7 breast, 29.8 µM; in the test with MDA-MB-435, 23.5 µM; in the test on PC-3 prostate it was 32.2 µM.

As for `CC(C)(C)c1cc(C(C)(C)C)cc(S(=O)(=O)Nc2cc3ccccc3cc2C(=O)NCCN)c1`, the GI50 with BT-549 breast is 1.67 µM; in the test on MCF7 breast, 1.53 µM; with MDA-MB-435 it was 1.68 µM; in the test with PC-3 prostate, 2.4 µM. Moreover, the TGI came to 3.09 µM with BT-549 breast, 2.95 µM in the test on MCF7 breast, 3.18 µM in the test with MDA-MB-435 and 6.23 µM in the test with PC-3 prostate.
